The source of these data is ChEMBL document CHEMBL2021875, “Anthracyclinones from Micromonospora sp” (J Nat Prod, 2012).

SMILES strings stand for the structures.

The experiment has as its system HCT-8. Briefly: Cytotoxicity against human HCT8 cells after 72 hrs by MTT assay. It is filed as functional, cell-based. Particulars: HCT-8, 72 h.
As a reminder, the IC50 is the midpoint of a concentration-inhibition curve. High values mean weaker potency, low ones greater potency. Turning to `CCCc1ccc2c(O)c3c(c(O)c2c1)C(=O)c1cccc(O)c1C3=O`, the IC50 is 12.7 µM.
As to `CCCc1ccc2c(c1)C(=O)c1cc3cccc(OC)c3cc1C2=O`, the IC50 was > 70 µM.
Turning to `CCC[C@@]1(O)CCC2=C(C1)C(=O)c1cc3cccc(OC)c3cc1C2=O`, the IC50 is > 70 µM.
Then `CCC[C@@]1(O)C[C@H](O)c2c(O)c3c(c(O)c2[C@H]1C(=O)OC)C(=O)c1cccc(O)c1C3=O`, with 6.2 µM; and `COc1cccc2c1C(=O)c1c(O)c3c(c(O)c1C2=O)C[C@@](O)(C(=O)CO)C[C@@H]3O[C@H]1C[C@H](N)[C@H](O)[C@H](C)O1` [DOXORUBICIN], with 0.1 µM.
